Test results from ChEMBL document CHEMBL1201862, “PubChem BioAssay data set” (2004).
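Following 48 hours of exposure in 96-well plates, responses at five concentrations were used to interpolate endpoints linearly. Abbreviation: GI50, concentration required for 50% inhibition of growth.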 Activity calls are given as the source filed them. Cut-off read from the data, not from the text of the source: active = GI50 up to about 1.1 µM and inactive = higher.

Assays:
Assay in all cases: inhibition of tumour cell growth, NCI panel, 48 h
[1] = system: A549
[2] = system: EKVX
[3] = system: HOP-62
[4] = system: HT-29
[5] = system: KM-20L2
[6] = system: KM12
[7] = system: M14
[8] = system: Malme-3M
[9] = system: NCI-H522
[10] = system: OVCAR-4
[11] = system: OVCAR-8
[12] = system: SN12C
[13] = system: SW-620
[14] = system: UACC-257
[15] = system: UO-31
[16] = system: HCC 2998
[17] = system: BT-549
[18] = system: MDA-MB-435
[19] = system: MDA-N
[20] = system: NCI/ADR-RES

Compound	GI50 [1]	GI50 [2]	GI50 [3]	GI50 [4]	GI50 [5]	GI50 [6]	GI50 [7]	GI50 [8]	GI50 [9]	GI50 [10]	GI50 [11]	GI50 [12]	GI50 [13]	GI50 [14]	GI50 [15]	GI50 [16]	GI50 [17]	GI50 [18]	GI50 [19]	GI50 [20]
COc1ccc2c(c1)[n+]([O-])c(-c1ccccc1Cl)c(N)[n+]2[O-]	94.2 µM (inactive)	> 100 µM (inactive)	> 100 µM (inactive)	62.5 µM (inactive)	38.8 µM (inactive)	67.1 µM (inactive)	73.1 µM (inactive)	> 100 µM (inactive)	16.9 µM (inactive)	> 100 µM (inactive)	> 100 µM (inactive)	> 100 µM (inactive)	61.7 µM (inactive)	36.6 µM (inactive)	99.8 µM (inactive)					
O=[N+]([O-])c1cccc(C2N3CCCCC3[C@@H]3c4[nH]c5ccccc5c4CCN23)c1 (stereo partly drawn)	14 µM (inactive)	23.1 µM (inactive)	16.3 µM (inactive)	6.82 µM (inactive)	11 µM (inactive)		14.5 µM (inactive)	2.55 µM (inactive)		16 µM (inactive)	31.4 µM (inactive)	14.5 µM (inactive)	20 µM (inactive)	14 µM (inactive)	11.9 µM (inactive)					
COC1C(OC(=S)Nc2ccccc2)c2ccccc2N1C(C)=O (stereo not drawn)	87.7 µM (inactive)	> 100 µM (inactive)	> 100 µM (inactive)	99.1 µM (inactive)	57.4 µM (inactive)	29.9 µM (inactive)	89.3 µM (inactive)			75.9 µM (inactive)	> 100 µM (inactive)	> 100 µM (inactive)	34 µM (inactive)	> 100 µM (inactive)	98.4 µM (inactive)	> 100 µM (inactive)				
CCOP(=O)(OCC)C(Nc1cccc(F)c1)c1ccc(N(C)C)cc1 (stereo not drawn)	52.7 µM (inactive)	99.1 µM (inactive)	> 100 µM (inactive)	59.2 µM (inactive)		> 100 µM (inactive)	74.3 µM (inactive)	> 100 µM (inactive)	75.5 µM (inactive)	> 100 µM (inactive)	> 100 µM (inactive)	> 100 µM (inactive)	> 100 µM (inactive)	76.9 µM (inactive)	> 100 µM (inactive)	64 µM (inactive)	> 100 µM (inactive)	> 100 µM (inactive)	> 100 µM (inactive)	81.8 µM (inactive)
Cc1cc2c(c(O)c1-c1c(C)cc(O)c3c1C(=O)C=CC3=O)C(=O)C=CC2=O	17.7 µM (inactive)	1.59 µM (inactive)	20.3 µM (inactive)	1.58 µM (inactive)		10.3 µM (inactive)	2.18 µM (inactive)	0.342 µM (active)	0.136 µM (active)	3 µM (inactive)	1.95 µM (inactive)	2.37 µM (inactive)	1.59 µM (inactive)	1.62 µM (inactive)	1.63 µM (inactive)	3.13 µM (inactive)	2.61 µM (inactive)	1.95 µM (inactive)	1.46 µM (inactive)	2.49 µM (inactive)
CC(C)C(NCc1c2ccccc2nc2ccccc12)C(=O)O (stereo not drawn)	74.6 µM (inactive)	40.6 µM (inactive)	> 100 µM (inactive)	30.7 µM (inactive)	58.2 µM (inactive)	33.3 µM (inactive)	62.4 µM (inactive)	55.3 µM (inactive)	22 µM (inactive)	15 µM (inactive)	26.5 µM (inactive)	50 µM (inactive)	39.9 µM (inactive)	54.5 µM (inactive)		47.9 µM (inactive)				
N#CC[N+]1(Cc2ccccn2)CCCC1.O=S(=O)([O-])c1ccccc1	> 100 µM (inactive)	> 100 µM (inactive)	> 100 µM (inactive)	> 100 µM (inactive)		> 100 µM (inactive)	> 100 µM (inactive)	> 100 µM (inactive)	> 100 µM (inactive)	> 100 µM (inactive)	> 100 µM (inactive)	> 100 µM (inactive)	> 100 µM (inactive)	> 100 µM (inactive)	> 100 µM (inactive)	> 100 µM (inactive)	> 100 µM (inactive)	> 100 µM (inactive)	> 100 µM (inactive)	> 100 µM (inactive)
Cc1ccc(S(=O)(=O)Nn2c(C)cc3ccc(S(=O)(=O)Nc4ccccc4[N+](=O)[O-])cc3c2=O)cc1	72.8 µM (inactive)	95.9 µM (inactive)	72.3 µM (inactive)	> 100 µM (inactive)		18.2 µM (inactive)	13.6 µM (inactive)	> 100 µM (inactive)	> 100 µM (inactive)	> 100 µM (inactive)	> 100 µM (inactive)	82.4 µM (inactive)	> 100 µM (inactive)	> 100 µM (inactive)	63.7 µM (inactive)	> 100 µM (inactive)	> 100 µM (inactive)	> 100 µM (inactive)	29.6 µM (inactive)	> 100 µM (inactive)
